Source: patent publication US12492215B2, “Pyrrolotriazine compounds acting as MNK inhibitor” (JUMBO DRUG BANK CO., LTD., priority 2019, dated 2025)
Counter-ions that a name gives are not always drawn.

What was measured:
MNK2 (h) protein kinase = MNK2 (h) protein kinase (Homo sapiens (Human), UniProt Q9HBH9); assay: Inhibitory activity against MNK2 protein kinase (KinaseProfiler, 33P-ATP filter-binding); type: biochemical; conditions: myelin basic protein substrate, 40 min room temperature
Description: 1. In Vitro Evaluation of Inhibitory Activity of Compounds Disclosed Herein Against MNK2 Protein Kinase
Purpose of experiment: to test the inhibitory activity of the compounds against MNK2 protein kinase
Experimental materials: assay buffer: 8 mM 3-(N-morpholino)propanesulfonic acid, 0.2 mM disodium ethylenediaminetetraacetate, 0.01% polyoxyethylene lauryl ether, 5% glycerol, 0.1% β-mercaptoethanol and 1 mg of bovine serum albumin
Experimental operation: Mnk2 protein kinase inhibitory activity assays were performed using the KinaseProfiler™ service from Eurofins Pharma Discovery Services UK Limited. Serially diluted DMSO solutions containing the compounds to be tested (3-fold serial dilution, starting from 10 μM), MNK2 (h) protein kinase and 0.33 mg/mL myelin basic protein were added to a freshly prepared buffer (pH 7.0), and then stirred homogeneously. The reaction was initiated by adding a mixture of ^33P-ATP (intensity of radioactivity: 10 μCi/μL) and 10 mM magnesium acetate. After the resulting mixture was reacted at room temperature for 40 min, the reaction was terminated by adding phosphoric acid to dilute to a concentration of 0.5%. 10 μL of the reaction solution was filtered using a P30 filtermat, and then the filtermat was washed four times with 0.425% phosphoric acid for 4 min each, followed by washing once with methanol. After drying, the intensity of radioactivity was determined using the Filter-Binding method.
The protein kinase inhibitory activity of the compounds was expressed as a percentage of the residual protein kinase activity relative to the blank substrate (DMSO alone). The Prism4 software package (GraphPad) was used to calculate IC50 values and fit curves.

MNK1 (h) protein kinase = MNK1 (h) protein kinase (Homo sapiens (Human), UniProt Q9BUB5); assay: Inhibitory activity against MNK1 protein kinase (Kinase HotSpot Profiling, 33P-ATP); type: biochemical; conditions: 120 min room temperature
Description: 2. In Vitro Evaluation of Inhibitory Activity of Compound Disclosed Herein Against MNK1 Protein Kinase
Purpose of experiment: to test the inhibitory activity of the compound against MNK1 protein kinase
Experimental materials: assay buffer: 20 mM 4-hydroxyethylpiperazine ethanesulfonic acid (pH 7.5), 10 mM magnesium chloride, 1 mM ethylene glycol-bis-(2-aminoethylether)-N,N,N′,N′-tetraacetic acid, 0.02% polyoxyethylene lauryl ether, 0.02 mg/mL bovine serum albumin, 0.1 mM sodium vanadate, 2 mM dithiothreitol, and 1% DMSO.
Experimental operation: Mnk1 protein kinase inhibitory activity assays were performed using the Kinase HotSpot Profiling service from Reaction Biology Corp. The substrate was added to a freshly prepared buffer, followed by addition of MNK1 (h). The mixture was stirred homogeneously. Serially diluted DMSO solution containing the compounds to be tested (3-fold serial dilution, starting from 3 μM) was added by using Echo550, and then ^33P-ATP (final intensity of radioactivity: 0.01 μCi/μl) was added to initiate the reaction. The mixture was pre-incubated at room temperature for 120 min. […] The concentration of the radioactive phosphorylated substrate remaining on the filter paper was measured.
The protein kinase inhibitory activity of the compound was expressed as a percentage of the residual protein kinase activity relative to the blank substrate (DMSO alone). […]

[1] = tested on: eIF4E phosphorylation of HCT116 cell strain; assay: Inhibition of eIF4E phosphorylation in HCT116 cell strain (AlphaLISA p-eIF4E Ser209); type: cell-based; conditions: Homo sapiens, HCT-116; HCT116 cells, 3 h incubation
Source text: 3. In Vitro Evaluation of Inhibitory Activity of Compounds Disclosed Herein Against eIF4E Phosphorylation Purpose of experiment: to test the inhibition (IC50) of the compounds against eIF4E phosphorylation of HCT116 cell strain. Experimental materials: HCT116 cells (ATCC), RPM11640 medium (Life technology), fetal bovine serum (Hyclone), double antibodies (penicillin, streptomycin) (Millipore), phosphate buffer (Corning), 384-well cell plate (PerkinElmer), and AlphaLISA® SureFire® Ultra™ p-eIF4E (Ser209) Assay Kit (PerkinElmer). Experimental operation: HCT116 cells were digested to make a cell suspension, which was then plated in a 96-well plate. The cell plate was then placed in an incubator for overnight incubation. Compounds were diluted to corresponding concentrations and added to the cell plate, and the resulting mixture was incubated for 3 h. The cells were subsequently lysed with a lysis buffer, and the lysate was transferred to a 384-well plate. A mixed receptor was freshly prepared according to the kit instructions and added to the 384-well plate, and the mixture was incubated at room temperature for 1 h. Then a mixed donor was freshly prepared according to the kit instructions and added to the 384-well plate, and the resulting mixture was incubated at room temperature for 1 h. The signals were read on EnVision using the standard AlphaLISA program, curves were fitted using Graphpad prism, and the IC50 values were calculated.

[2] = Pharmacokinetic evaluation in mice; type: in vivo, CD-1 mice; conditions: male, CD-1, mouse, plasma; for bioavailability: PO 2 mg/kg vs IV 0.5 mg/kg, read-out: Bioavailability F; for AUC(0-t) / half-life: PO 2 mg/kg; for AUC(0-t): read-out: Area under the plasma drug concentration-time curve AUC0-last PO; for Cmax: intragastric 2 mg/kg, intravenous 0.5 mg/kg (route of Cmax not given), read-out: Peak concentration Cmax; for clearance / Vd: intravenous injection 0.5 mg/kg; for clearance: read-out: Clearance CL; for Vd: read-out: Tissue distribution Vdss; for half-life: read-out: Half-life T1/2 (PO) (converted)
Description: 4. Pharmacokinetic Evaluation of Compounds Disclosed Herein
Purpose of experiment: to test pharmacokinetic parameters of the compounds in CD-1 mice
Experimental materials: CD-1 mice (Male, 7-9 weeks age, Shanghai Sippe-Bk Lab Animal Co., Ltd.)
Experimental operation: pharmacokinetic characteristics of the compounds after intravenous injection and oral administration for the rodent were tested by a standard scheme, and the candidate compounds were each formulated into a clear solution or a uniform suspension in the experiments and intravenously administered and intragastrically administered once to a mouse. The vehicle for the intravenous injection and oral administration was […] hydroxypropyl-β-cyclodextrin aqueous solution or normal saline solution. […] Two mice were subjected to intravenous injection at a dose of 0.5 mg/kg, and plasma samples were collected at 0 h (before administration) and 0.083, 0.25, 0.5, 1, 2, 4, 8, 12 and 24 h (after administration); the other two mice were subjected to intragastric administration at a dose of 2 mg/kg, and plasma samples were collected at 0 h (before administration) and 0.25, 0.5, 1, 2, 4, 8, 12 and 24 h (after administration). Whole blood samples within 24 h were collected and each centrifuged at 3000 g for 10 min. The supernatant was separated to obtain plasma sample, and acetonitrile solution containing internal standard whose volume is […] that of the plasma sample was added to precipitate the protein. The mixture was vortexed at 800 rpm for 10 min, and then 1 μL of supernatant was taken for injection. Plasma concentrations were quantitatively analyzed by LC-MS/MS method, and pharmacokinetic parameters, such as peak concentration (Cmax), clearance (CL), half-life (T1/2), tissue distribution (Vdss), area under the plasma drug concentration-time curve (AUC0-last) and bioavailability (F), were calculated.

[3] = tested on: CT-26 mouse colon cancer graft tumor; assay: In vivo efficacy in CT-26 mouse graft tumor; parameters: species or system mice; conditions: QD, 21-day treatment, CT-26 graft tumor
Description: 5. In Vivo Efficacy Experiment of Compound Disclosed Herein for CT-26 Mouse Graft Tumor
Purpose of experiment: to determine in vivo efficacy of compound for CT-26 mouse graft tumor
Experimental materials: CT-26 cells, RMPI-1640 medium containing 10% fetal bovine serum, and mice (female, Shanghai Sippe-Bk Lab Animal Co., Ltd.)
Experimental operation: CT-26 cells were cultured in RMPI-1640 medium containing 10% fetal bovine serum in an incubator at 37° C./5% CO2. Tumor cells were subcultured, and after an appropriate concentration was reached and the tumor cells were in the logarithmic growth phase, the tumor cells were collected, counted and then resuspended in DPBS (phosphate buffered solution), and the concentration of the cell suspension was adjusted to 3×10^6/mL for inoculation.
Establishment of mouse colon cancer graft tumor: cells were collected and adjusted to a concentration of 3×10^6 cells/mL (resuspended in DPBS to obtain cell suspension), and 0.1 mL of tumor cells was injected subcutaneously at the right dorsal side of the mice under sterile conditions, and 3×10^5 cells were inoculated for each mouse. After the tumor grew to a certain size, the length (a) and the width (b) of the tumor was measured by using a digital vernier caliper, and the tumor volume (TV) was calculated, wherein the calculation formula is as follows: TV=a×b^2/2.
CT-26 tumor cell inoculation: on the day of inoculation, animals were grouped (8 animals for each) according to the body weight and subjected to drug administration separately, and the day of inoculation was considered as D0. When the tumor size reached about 60 mm^3, the animals in the antibody groups were grouped according to the tumor size and the body weight. The body weight and tumor size of the animals were measured three times a week during the experiment, while clinical symptoms of the animals were observed and recorded daily, and for each administration, reference was made to the animal body weight measured most recently. The inhibitory effect of the compound on colon cancer graft tumor in mice was determined after 21-day treatment at a dose of 30 mg/Kg QD (once daily), 90 mg/Kg QD (once daily) and 200 mg/Kg QD (once daily), and the specific information is shown in Table 5 below.
The calculation formula of T/C (%) is as follows: T/C (%)=(TRTV/CRTV)×100%. TRTV is the relative tumor volume of the treatment group, and CRTV is the relative tumor volume of the negative control group; TGI (%)^a=(1−average tumor volume at the end of administration of a treatment group/average tumor volume at the end of treatment of the vehicle control group)×100%.

[4] = tested on: expression of PD-1, LAG3 and IL-10; conditions: background statement; cited from earlier work
[5] = background statement; cited from earlier work

MNK2 (h) protein kinase, sequence (Q9HBH9 whole entry): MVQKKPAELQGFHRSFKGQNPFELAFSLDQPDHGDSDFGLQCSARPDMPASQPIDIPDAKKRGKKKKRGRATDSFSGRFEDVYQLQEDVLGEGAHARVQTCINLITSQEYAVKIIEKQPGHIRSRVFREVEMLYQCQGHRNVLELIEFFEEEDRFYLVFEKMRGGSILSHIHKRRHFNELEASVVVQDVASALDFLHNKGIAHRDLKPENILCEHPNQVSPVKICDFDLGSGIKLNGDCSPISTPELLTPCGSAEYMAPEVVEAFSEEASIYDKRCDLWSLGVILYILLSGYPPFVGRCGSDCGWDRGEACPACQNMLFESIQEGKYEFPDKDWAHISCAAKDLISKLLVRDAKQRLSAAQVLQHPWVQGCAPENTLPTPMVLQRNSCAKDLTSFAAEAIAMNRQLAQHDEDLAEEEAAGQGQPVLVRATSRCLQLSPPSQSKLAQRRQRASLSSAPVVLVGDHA
MNK1 (h) protein kinase, sequence (Q9BUB5 whole entry): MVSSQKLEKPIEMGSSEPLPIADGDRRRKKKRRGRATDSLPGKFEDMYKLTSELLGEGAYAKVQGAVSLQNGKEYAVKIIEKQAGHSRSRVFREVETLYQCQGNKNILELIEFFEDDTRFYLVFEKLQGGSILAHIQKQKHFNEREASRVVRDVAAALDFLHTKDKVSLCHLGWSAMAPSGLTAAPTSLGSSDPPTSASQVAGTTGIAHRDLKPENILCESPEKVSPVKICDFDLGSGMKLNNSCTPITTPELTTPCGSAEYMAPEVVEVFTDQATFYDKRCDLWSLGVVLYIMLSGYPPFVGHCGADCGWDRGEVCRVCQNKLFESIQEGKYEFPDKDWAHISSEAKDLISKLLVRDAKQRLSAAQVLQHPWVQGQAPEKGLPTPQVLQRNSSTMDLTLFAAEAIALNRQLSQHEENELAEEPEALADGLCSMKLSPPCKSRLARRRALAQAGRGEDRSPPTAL

Row | SMILES | IC50 (MNK2 (h) protein kinase) [nM] | IC50 [1] [nM] | also measured
1 | Cc1cc(Nc2ncnn3cc(OCCN4CCCC4)c(C)c23)c(=O)n2c1C(=O)NC21CCCCC1 [Compound 1 (hydrochloride)] | 22 | 3.46 | IC50 (MNK1 (h) protein kinase): 54.6 nM; bioavailability [2]: 32.5%; AUC(0-t) [2]: 0.956 µM·h; Cmax [2]: 35.9 nM; clearance [2]: 33.3 mL/min/kg; Vd [2]: 14.1 L/kg
2 | Cc1cc(Nc2ncnn3cc(OCCN4CCCC4)c(C)c23)c(=O)n2c1C(=O)NC21CCNCC1 [Compound 2 (hydrochloride)] | 63 |  | 
3 | Cc1cc(Nc2ncnn3cc(OCCN4CCCC4)c(C)c23)c(=O)n2c1C(=O)NC21CCN(C)CC1 [Compound 3 (hydrochloride)] | 39 |  | 
4 | Cc1c(OCCN2CCCC2)cn2ncnc(Nc3ccc4n(c3=O)C3(CCCCC3)NC4=O)c12 [Compound 4 (hydrochloride)] | 25 | 14 | 
5 | Cc1c(OCCN2CCCC2)cn2ncnc(Nc3cc(F)c4n(c3=O)C3(CCCCC3)NC4=O)c12 [Compound 5 (hydrochloride)] | 26 | 9.5 | 
6 | Cc1c(OCCN2CCCC2)cn2ncnc(Nc3cc(Cl)c4n(c3=O)C3(CCCCC3)NC4=O)c12 [Compound 6 (hydrochloride)] | 21 | 0.66 | 
7 | Cc1cc(Nc2ncnn3cc(OCCN4CCCC4)c(C)c23)c(=O)n2c1C(=O)NC21CCCC1 [Compound 7 (hydrochloride)] | 17 | 6.5 | AUC(0-t) [2]: 1.39 µM·h; half-life [2]: 3.2 h; Cmax [2]: 131 nM
8 | Cc1cc(Nc2ncnn3cc(OCCN4CCCC4)c(C)c23)c(=O)n2c1C(=O)NC2(C)C [Compound 8 (hydrochloride)] | 33 | 24 | 
9 | Cc1cc(Nc2ncnn3cc(OCCN4CCCC4)c(C)c23)c(=O)n2c1C(=O)NC21CCC(F)(F)CC1 [Compound 9 (hydrochloride)] | 30 | 12 | 
10 | Cc1c(OCCN2CCCC2)cn2ncnc(Nc3cc(Cl)c4n(c3=O)C3(CCCC3)NC4=O)c12 [Compound 10 (hydrochloride)] | 8 | 3.1 | 
11 | Cc1cc(Nc2ncnn3cc(OCCN4CCC(F)(F)C4)c(C)c23)c(=O)n2c1C(=O)NC21CCCCC1 [Compound 11] | 28 | 18.9 | bioavailability [2]: 14.2%; AUC(0-t) [2]: 0.405 µM·h; half-life [2]: 12.1 h; Cmax [2]: 104 nM; clearance [2]: 21.8 mL/min/kg; Vd [2]: 2.53 L/kg
12 | Cc1cc(Nc2ncnn3cc(OCCN4CCC(F)(F)C4)c(C)c23)c(=O)n2c1C(=O)NC21CCCC1 [Compound 12] |  | 8.6 | T/C % ([3]; 30 mg/Kg): 36.43%; TGI % ([3]; 30 mg/Kg): 63.57%; T/C % ([3]; 90 mg/Kg): 31.11%; TGI % ([3]; 90 mg/Kg): 68.89%; T/C % ([3]; 200 mg/Kg): 33.31%; TGI % ([3]; 200 mg/Kg): 68.51%
13 | Cc1cc(Nc2ncnn3cc(OC[C@H](C)N4CCCC4)c(C)c23)c(=O)n2c1C(=O)NC21CCCC1 [Compound 13] | 14 | 10.5 | 
14 | Cc1cc(Nc2ncnn3cc(OCC4CCNC4)c(C)c23)c(=O)n2c1C(=O)NC21CCCCC1 (stereo not shown) [Compound 15 (hydrochloride)] | 28 |  | 
15 | Cc1cc(Nc2ncnn3cc(OCC4CCN(C)C4)c(C)c23)c(=O)n2c1C(=O)NC21CCCCC1 (stereo not shown) [Compound 16 (hydrochloride)] | 27 | 2.8 | 
16 | Cc1cc(Nc2cc(N)ncn2)c(=O)n2c1C(=O)NC21CCCCC1 [eFT508] |  |  | effect on expression of PD-1, LAG3 and IL-10 [4]: selectively inhibit the expression of PD-1, LAG3 and IL-10; safety in phase I clinical trial [5]: good safety
